We go through four compounds from ChEMBL document CHEMBL4007384, “Synthesis and optimization of furano[3,2-d]pyrimidines as selective spleen tyrosine kinase (Syk) inhibitors” (Bioorg Med Chem Lett, 2016).

In general, IC50 refers to the concentration that gives 50% inhibition.

Each structure is given as a SMILES string. Where only a bound is given, the exact number is not on record here.

For series [1], the target named is Fibroblast growth factor receptor 1 (Homo sapiens, UniProt P11362). Nature of the series: Inhibition of FGFR1 (unknown origin) after 60 mins by TR-FRET assay. On the technique in general: TR-FRET usually uses a lanthanide donor and a delayed reading to cut background.
For series [2], the target named is Cyclin-dependent kinase 7 (Homo sapiens, UniProt P50613). The series is described as follows: Inhibition of CDK7 (unknown origin) after 60 mins by TR-FRET assay.
Series [3] concerns the target Tyrosine-protein kinase JAK2 (Homo sapiens, UniProt O60674). The series is described as follows: Inhibition of JAK2 (unknown origin) after 60 mins by TR-FRET assay.
The target in series [4] is Calcium/calmodulin-dependent protein kinase type II subunit alpha (Homo sapiens, UniProt Q9UQM7). Nature of the series: Inhibition of human CAMK2A (unknown origin) after 60 mins by TR-FRET assay.
In series [5] the target is Focal adhesion kinase 1 (Homo sapiens, UniProt Q05397). Nature of the series: Inhibition of FAK (unknown origin) after 60 mins by TR-FRET assay.
In series [6] the target is Platelet-derived growth factor receptor alpha (Homo sapiens, UniProt P16234). The series is described as follows: Inhibition of PDGFRA (unknown origin) after 60 mins by TR-FRET assay.
In series [7] the target is T1, Serine/threonine-protein kinase D3 (Homo sapiens, UniProt O94806).
T1 sequence (O94806 whole entry): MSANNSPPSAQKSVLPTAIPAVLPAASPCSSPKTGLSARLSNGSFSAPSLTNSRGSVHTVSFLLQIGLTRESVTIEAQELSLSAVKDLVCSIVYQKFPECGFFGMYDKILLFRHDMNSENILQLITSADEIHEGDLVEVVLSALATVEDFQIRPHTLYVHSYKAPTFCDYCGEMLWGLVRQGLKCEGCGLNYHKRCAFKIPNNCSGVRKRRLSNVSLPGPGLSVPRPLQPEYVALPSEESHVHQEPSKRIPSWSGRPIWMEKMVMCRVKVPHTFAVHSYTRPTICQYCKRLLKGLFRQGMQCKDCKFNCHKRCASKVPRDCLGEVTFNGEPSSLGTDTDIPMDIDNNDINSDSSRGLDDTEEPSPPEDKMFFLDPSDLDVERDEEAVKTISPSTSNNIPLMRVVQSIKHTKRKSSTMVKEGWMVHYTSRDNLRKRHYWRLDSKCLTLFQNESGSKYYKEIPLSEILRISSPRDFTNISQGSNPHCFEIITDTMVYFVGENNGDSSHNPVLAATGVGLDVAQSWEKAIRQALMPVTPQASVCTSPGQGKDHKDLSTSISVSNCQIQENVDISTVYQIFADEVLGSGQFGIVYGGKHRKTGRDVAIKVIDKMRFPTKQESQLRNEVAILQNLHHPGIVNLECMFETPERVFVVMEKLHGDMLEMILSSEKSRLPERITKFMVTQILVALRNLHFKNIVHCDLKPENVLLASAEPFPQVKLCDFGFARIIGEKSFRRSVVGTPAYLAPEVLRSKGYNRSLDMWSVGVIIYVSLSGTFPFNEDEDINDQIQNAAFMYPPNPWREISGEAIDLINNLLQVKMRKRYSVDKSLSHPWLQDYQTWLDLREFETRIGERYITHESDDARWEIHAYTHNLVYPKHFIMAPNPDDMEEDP
Nature of the series: Inhibition of Prkcn (unknown origin) after 60 mins by TR-FRET assay.

The target of series [8] is Insulin receptor (Homo sapiens, UniProt P06213). The series is described as follows: Inhibition of INSR (unknown origin) after 60 mins by TR-FRET assay.
The target in series [9] is Serine/threonine-protein kinase pim-1 (Homo sapiens, UniProt P11309). Nature of the series: Inhibition of PIM1 (unknown origin) after 60 mins by TR-FRET assay.
Series [10] concerns the target Glycogen synthase kinase-3 alpha (Homo sapiens, UniProt P49840). Nature of the series: Inhibition of GSK3A (unknown origin) after 60 mins by TR-FRET assay.
Series [11] addresses Proto-oncogene tyrosine-protein kinase receptor Ret (Homo sapiens, UniProt P07949). The series is described as follows: Inhibition of RET (unknown origin) after 60 mins by TR-FRET assay.
Series [12] can be described thus: Unbound clearance in rat microsomes. Type of series: ADME, Microsome.
The target of series [13] is Dual specificity mitogen-activated protein kinase kinase 2 (Homo sapiens, UniProt P36507). Nature of the series: Inhibition of MEK2 (unknown origin) after 60 mins by TR-FRET assay.
The target in series [14] is Death-associated protein kinase 3 (Homo sapiens, UniProt O43293). The series is described as follows: Inhibition of ZIPK (unknown origin) after 60 mins by TR-FRET assay.
The nature of series [15]: Inhibition of PKA (unknown origin) after 60 mins by TR-FRET assay.
Series [16] concerns the target NT-3 growth factor receptor (Homo sapiens, UniProt Q16288). Nature of the series: Inhibition of TrkC (unknown origin) after 60 mins by TR-FRET assay.
The target of series [17] is BDNF/NT-3 growth factors receptor (Homo sapiens, UniProt Q16620). The series is described as follows: Inhibition of TrkB (unknown origin) after 60 mins by TR-FRET assay.
The target of series [18] is Vascular endothelial growth factor receptor 2 (Homo sapiens, UniProt P35968). The series is described as follows: Inhibition of KDR (unknown origin) after 60 mins by TR-FRET assay.
Series [19] deals with Dual specificity mitogen-activated protein kinase kinase 1 (Homo sapiens, UniProt Q02750). The series is described as follows: Inhibition of MEK1 (unknown origin) after 60 mins by TR-FRET assay.
The target in series [20] is Leukocyte tyrosine kinase receptor (Homo sapiens, UniProt P29376). Nature of the series: Inhibition of LTK (unknown origin) after 60 mins by TR-FRET assay.
In series [21] the target is Cyclin-dependent kinase 8 (Homo sapiens, UniProt P49336). The series is described as follows: Inhibition of CDK8 (unknown origin) after 60 mins by TR-FRET assay.
In series [22] the target is Serine/threonine-protein kinase PAK 4 (Homo sapiens, UniProt O96013). Nature of the series: Inhibition of PAK4 kinase domain (unknown origin) after 60 mins by TR-FRET assay.
Series [23] deals with Macrophage colony-stimulating factor 1 receptor (Homo sapiens, UniProt P07333). Nature of the series: Inhibition of CSF1R (unknown origin) after 60 mins by TR-FRET assay.
Series [24] addresses Tyrosine-protein kinase Lck (Homo sapiens, UniProt P06239). Nature of the series: Inhibition of Lck (unknown origin) after 60 mins by TR-FRET assay.
In series [25] the target is Mitogen-activated protein kinase 9 (Homo sapiens, UniProt P45984). The series is described as follows: Inhibition of JNK2 (unknown origin) after 60 mins by TR-FRET assay.

Chain of Death-associated protein kinase 3 (O43293 whole entry): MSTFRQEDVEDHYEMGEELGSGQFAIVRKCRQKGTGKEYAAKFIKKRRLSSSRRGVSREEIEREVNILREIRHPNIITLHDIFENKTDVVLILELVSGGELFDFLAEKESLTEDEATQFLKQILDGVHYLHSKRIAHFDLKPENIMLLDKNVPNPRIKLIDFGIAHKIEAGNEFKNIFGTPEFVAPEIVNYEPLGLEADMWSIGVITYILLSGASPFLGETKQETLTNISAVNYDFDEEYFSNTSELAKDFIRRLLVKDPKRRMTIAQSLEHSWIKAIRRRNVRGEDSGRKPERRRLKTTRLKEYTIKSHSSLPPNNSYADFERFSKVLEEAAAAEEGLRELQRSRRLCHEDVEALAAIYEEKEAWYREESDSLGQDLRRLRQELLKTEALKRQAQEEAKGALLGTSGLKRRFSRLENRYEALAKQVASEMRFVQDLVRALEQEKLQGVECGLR
Chain of Tyrosine-protein kinase Lck (P06239 whole entry): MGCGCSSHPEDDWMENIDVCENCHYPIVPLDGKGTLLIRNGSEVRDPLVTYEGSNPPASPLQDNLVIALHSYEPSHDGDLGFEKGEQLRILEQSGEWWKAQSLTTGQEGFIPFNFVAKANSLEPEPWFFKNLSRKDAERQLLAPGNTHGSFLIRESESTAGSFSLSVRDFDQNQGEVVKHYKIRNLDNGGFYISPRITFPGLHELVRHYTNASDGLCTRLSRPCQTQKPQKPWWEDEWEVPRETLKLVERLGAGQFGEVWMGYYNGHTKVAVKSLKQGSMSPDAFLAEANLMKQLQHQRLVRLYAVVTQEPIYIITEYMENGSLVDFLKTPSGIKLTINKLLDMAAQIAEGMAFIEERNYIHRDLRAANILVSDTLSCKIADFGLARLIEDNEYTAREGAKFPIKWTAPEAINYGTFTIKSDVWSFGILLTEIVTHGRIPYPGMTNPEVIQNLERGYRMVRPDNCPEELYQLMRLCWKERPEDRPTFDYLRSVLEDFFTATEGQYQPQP
Chain of Proto-oncogene tyrosine-protein kinase receptor Ret (P07949 whole entry): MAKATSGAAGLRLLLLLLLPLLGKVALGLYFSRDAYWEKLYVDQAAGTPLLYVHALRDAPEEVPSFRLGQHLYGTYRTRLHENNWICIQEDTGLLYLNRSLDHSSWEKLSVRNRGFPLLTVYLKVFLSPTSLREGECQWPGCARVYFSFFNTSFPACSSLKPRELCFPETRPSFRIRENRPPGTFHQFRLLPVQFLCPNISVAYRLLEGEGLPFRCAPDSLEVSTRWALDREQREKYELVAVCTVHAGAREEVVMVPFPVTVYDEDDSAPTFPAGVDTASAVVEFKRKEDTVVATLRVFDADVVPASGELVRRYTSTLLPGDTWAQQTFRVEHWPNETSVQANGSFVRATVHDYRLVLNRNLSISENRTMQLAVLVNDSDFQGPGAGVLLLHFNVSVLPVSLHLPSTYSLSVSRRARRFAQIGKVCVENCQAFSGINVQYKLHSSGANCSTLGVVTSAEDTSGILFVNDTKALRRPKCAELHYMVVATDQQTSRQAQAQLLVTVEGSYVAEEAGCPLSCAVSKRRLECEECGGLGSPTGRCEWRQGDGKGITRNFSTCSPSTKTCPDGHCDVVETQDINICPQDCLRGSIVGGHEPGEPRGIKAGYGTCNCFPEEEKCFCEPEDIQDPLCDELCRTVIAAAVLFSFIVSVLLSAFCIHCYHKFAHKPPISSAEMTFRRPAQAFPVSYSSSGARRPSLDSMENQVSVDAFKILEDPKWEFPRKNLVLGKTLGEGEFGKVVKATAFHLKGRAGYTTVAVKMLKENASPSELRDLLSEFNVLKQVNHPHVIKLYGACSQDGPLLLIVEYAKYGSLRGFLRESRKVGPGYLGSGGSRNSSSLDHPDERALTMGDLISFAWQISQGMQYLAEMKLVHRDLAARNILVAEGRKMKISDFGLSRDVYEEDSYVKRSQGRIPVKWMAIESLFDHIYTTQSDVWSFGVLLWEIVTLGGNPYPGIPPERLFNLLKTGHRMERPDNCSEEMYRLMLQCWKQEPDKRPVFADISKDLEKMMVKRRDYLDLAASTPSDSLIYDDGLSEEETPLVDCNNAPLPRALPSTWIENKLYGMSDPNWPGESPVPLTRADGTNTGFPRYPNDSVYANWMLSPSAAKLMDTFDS
Chain of Focal adhesion kinase 1 (Q05397 whole entry): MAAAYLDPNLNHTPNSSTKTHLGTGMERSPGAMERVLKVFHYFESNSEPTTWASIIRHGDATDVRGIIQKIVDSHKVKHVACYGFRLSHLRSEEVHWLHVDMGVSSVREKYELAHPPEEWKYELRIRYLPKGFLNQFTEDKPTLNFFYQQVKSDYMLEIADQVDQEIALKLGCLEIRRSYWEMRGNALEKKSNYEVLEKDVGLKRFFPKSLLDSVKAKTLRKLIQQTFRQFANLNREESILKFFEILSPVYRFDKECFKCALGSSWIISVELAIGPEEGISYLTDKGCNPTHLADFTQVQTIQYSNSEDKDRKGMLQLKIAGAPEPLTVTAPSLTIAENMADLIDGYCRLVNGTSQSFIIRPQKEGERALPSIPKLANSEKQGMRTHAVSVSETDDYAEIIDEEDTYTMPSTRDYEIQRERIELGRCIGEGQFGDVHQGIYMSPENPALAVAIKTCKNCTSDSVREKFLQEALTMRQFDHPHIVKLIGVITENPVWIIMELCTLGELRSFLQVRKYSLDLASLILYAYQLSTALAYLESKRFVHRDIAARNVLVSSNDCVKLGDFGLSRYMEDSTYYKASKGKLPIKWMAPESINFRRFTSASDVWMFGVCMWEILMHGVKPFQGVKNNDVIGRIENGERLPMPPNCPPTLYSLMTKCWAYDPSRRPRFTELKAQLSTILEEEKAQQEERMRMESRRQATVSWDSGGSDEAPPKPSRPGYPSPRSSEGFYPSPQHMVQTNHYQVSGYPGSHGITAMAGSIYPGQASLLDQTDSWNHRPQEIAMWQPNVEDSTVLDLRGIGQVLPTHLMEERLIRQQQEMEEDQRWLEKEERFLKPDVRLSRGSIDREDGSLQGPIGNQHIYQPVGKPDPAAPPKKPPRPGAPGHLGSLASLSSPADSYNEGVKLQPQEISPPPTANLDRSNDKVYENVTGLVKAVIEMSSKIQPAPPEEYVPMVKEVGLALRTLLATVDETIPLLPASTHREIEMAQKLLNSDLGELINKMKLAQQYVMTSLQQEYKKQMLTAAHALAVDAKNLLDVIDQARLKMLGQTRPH
Chain of Glycogen synthase kinase-3 alpha (P49840 whole entry): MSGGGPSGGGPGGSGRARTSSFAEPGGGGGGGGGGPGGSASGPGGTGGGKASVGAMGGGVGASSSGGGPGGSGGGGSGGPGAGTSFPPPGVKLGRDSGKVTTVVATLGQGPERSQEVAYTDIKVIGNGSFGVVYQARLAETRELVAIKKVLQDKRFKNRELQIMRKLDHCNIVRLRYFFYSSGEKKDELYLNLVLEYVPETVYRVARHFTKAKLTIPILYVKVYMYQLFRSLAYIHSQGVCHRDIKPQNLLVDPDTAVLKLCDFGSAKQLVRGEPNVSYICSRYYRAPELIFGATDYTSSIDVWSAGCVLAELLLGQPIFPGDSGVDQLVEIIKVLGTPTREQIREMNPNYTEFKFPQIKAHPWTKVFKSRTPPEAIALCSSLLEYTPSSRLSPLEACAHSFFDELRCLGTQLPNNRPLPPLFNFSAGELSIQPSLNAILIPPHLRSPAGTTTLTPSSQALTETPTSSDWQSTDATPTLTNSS
Chain of Calcium/calmodulin-dependent protein kinase type II subunit alpha (Q9UQM7 whole entry): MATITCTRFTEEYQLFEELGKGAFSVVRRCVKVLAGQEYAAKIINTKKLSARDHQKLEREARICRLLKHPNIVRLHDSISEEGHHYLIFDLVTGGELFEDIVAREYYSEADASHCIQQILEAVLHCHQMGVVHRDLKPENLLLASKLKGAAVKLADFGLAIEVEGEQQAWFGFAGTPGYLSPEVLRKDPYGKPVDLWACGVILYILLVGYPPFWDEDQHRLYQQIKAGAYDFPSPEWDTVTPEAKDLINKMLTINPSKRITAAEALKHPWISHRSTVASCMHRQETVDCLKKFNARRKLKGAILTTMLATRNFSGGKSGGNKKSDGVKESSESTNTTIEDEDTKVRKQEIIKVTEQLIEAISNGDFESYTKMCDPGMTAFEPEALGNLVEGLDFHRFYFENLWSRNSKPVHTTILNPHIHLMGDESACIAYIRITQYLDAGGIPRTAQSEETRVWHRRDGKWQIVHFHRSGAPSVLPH
Chain of Macrophage colony-stimulating factor 1 receptor (P07333 whole entry): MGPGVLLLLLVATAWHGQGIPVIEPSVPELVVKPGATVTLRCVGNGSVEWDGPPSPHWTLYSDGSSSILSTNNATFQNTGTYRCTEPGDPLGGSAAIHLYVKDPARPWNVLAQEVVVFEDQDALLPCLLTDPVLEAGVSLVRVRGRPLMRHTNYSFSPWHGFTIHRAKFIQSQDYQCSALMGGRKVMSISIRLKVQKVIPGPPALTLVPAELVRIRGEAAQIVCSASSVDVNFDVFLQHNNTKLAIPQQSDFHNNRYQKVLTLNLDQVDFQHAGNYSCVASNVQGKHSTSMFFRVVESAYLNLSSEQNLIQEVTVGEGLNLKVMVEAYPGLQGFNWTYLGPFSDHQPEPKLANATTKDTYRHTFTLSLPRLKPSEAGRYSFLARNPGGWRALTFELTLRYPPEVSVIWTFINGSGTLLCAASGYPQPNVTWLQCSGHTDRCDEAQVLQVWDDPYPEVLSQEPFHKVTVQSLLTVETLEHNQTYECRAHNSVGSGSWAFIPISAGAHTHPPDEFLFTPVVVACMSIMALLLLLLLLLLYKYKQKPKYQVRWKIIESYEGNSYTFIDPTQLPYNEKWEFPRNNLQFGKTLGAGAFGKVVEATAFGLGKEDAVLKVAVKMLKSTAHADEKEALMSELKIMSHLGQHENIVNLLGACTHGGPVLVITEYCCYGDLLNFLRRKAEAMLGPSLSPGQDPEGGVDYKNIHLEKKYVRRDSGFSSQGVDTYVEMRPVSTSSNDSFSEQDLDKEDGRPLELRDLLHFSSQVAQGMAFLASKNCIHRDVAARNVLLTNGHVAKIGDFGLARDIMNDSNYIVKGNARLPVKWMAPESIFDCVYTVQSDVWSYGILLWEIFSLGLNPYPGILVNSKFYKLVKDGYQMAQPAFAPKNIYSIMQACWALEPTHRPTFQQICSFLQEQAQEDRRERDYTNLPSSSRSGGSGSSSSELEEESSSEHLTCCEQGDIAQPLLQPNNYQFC

For `CC1(C)OCC(=O)Nc2cc(Nc3nc(NCC(F)(F)F)c4occc4n3)ccc21`, the IC50 in series [1] was > 10 µM; in series [2] it was > 10 µM; in series [3] it was 0.236 µM; in series [4] it was > 10 µM; in [5], 5.5 µM; in series [6], 5.59 µM. The IC50 in [7] was > 10 µM; in series [8], 2.13 µM; in series [9], > 10 µM; in series [10] it was > 10 µM; in [11], 0.379 µM; in series [13] it was > 10 µM. The half-inhibitory concentration (IC50) was > 10 µM in series [14]; > 10 µM in series [15]; 7.7 µM in [16]; 0.379 µM in series [17]; 3.35 µM in [18]; > 10 µM in series [19]. Also, the IC50 in series [20] is 5.11 µM; in series [21], > 10 µM; in [22], > 10 µM; in series [23], > 10 µM; in [24], 0.699 µM; in series [25] it was > 10 µM. Besides, the CL free in series [12] is < 81.7 mL/min/kg.
For the compound `FC(F)(F)CNc1nc(Nc2ccc(N3CCOCC3)c(Cl)c2)nc2ccoc12`, the IC50 in series [1] was > 10 µM; in [2] it was > 10 µM; in [3], 2.32 µM; in [4], > 10 µM; in series [5], > 10 µM; in series [6], > 10 µM. Moreover, the IC50 in [7] was > 10 µM; in [8], 3.48 µM; in series [9], > 10 µM; in series [10] it was > 10 µM; in [11] it was 1.51 µM; in series [13], > 10 µM. The IC50 in series [14] is > 10 µM; in series [15], > 10 µM; in series [16], > 10 µM; in [17], 8.34 µM; in series [18] it was > 10 µM; in [19], > 10 µM. Besides, the IC50 is > 10 µM in [20]; > 10 µM in series [21]; > 10 µM in series [22]; > 10 µM in series [23]; 3.7 µM in series [24]; > 10 µM in series [25]. For the same compound, in [12], the CL free is 1600 mL/min/kg.
As to `FC(F)(F)CNc1nc(Nc2ccc3cn[nH]c3c2)nc2ccoc12`, the 50% inhibitory concentration (IC50) in [1], in series [2], in series [4], in series [5], in series [6] and in [7] was > 10 µM each time. Besides, the IC50 in series [9] was 1.36 µM; in [10], 9.36 µM; in [11] it was 3.5 µM; in [13], > 10 µM; in [15], > 10 µM; in series [16] it was > 10 µM. For the same compound, the half-maximal inhibitory concentration (IC50) was > 10 µM in series [18]; > 10 µM in series [19]; 7.4 µM in [20]; 2.11 µM in series [21]; 6.44 µM in series [22]; > 10 µM in series [23]. In addition, the results for the half-inhibitory concentration (IC50) in series [24] and in series [25] were 7.79 µM and > 10 µM, respectively. The same compound had a CL free in series [12] of 255 mL/min/kg.
Turning to `Cc1n[nH]c2cc(Nc3nc(NC4CC4)c4occc4n3)ccc12`, the IC50 in [1] was > 10 µM; in series [2], > 10 µM; in series [3] it was 4.17 µM; in series [4], > 10 µM; in series [6], > 10 µM; in series [7], > 10 µM. For the same compound, the IC50 in series [8] was > 10 µM; in series [9], > 10 µM; in series [10], > 10 µM; in series [13] it was > 10 µM; in series [14] it was 4.98 µM; in [15] it was > 10 µM. Besides, the IC50 was > 10 µM in series [16]; > 10 µM in series [17]; > 10 µM in series [19]; 6.01 µM in series [20]; > 10 µM in series [21]; 6.79 µM in series [22]. The IC50 in series [23] and in series [25] was > 10 µM throughout.
